PubChem BioAssay (NCI)
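GI50 marks 50% less growth. TGI is the concentration that stops growth completely.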

Tests used:
Assay in all cases: inhibition of tumour cell growth, NCI panel, 384-well format
MDA-MB-435 melanoma = tested on: MDA-MB-435 melanoma
HL-60(TB) leukemia = tested on: HL-60(TB) leukemia
OVCAR-5 ovarian = tested on: OVCAR-5 ovarian
TK-10 renal = tested on: TK-10 renal
HS 578T breast = tested on: HS 578T breast
OVCAR-8 ovarian = tested on: OVCAR-8 ovarian
MDA-MB-468 breast = tested on: MDA-MB-468 breast
NCI/ADR-RES ovarian = tested on: NCI/ADR-RES ovarian
SK-OV-3 ovarian = tested on: SK-OV-3 ovarian
RXF 393 renal = tested on: RXF 393 renal
SW-620 colon = tested on: SW-620 colon
CAKI-1 renal = tested on: CAKI-1 renal
SK-MEL-5 melanoma = tested on: SK-MEL-5 melanoma
T-47D breast = tested on: T-47D breast
SNB-19 CNS = tested on: SNB-19 CNS
786-0 renal = tested on: 786-0 renal
EKVX NSCLC = tested on: EKVX NSCLC
HCT-116 colon = tested on: HCT-116 colon
SK-MEL-28 melanoma = tested on: SK-MEL-28 melanoma
HOP-92 NSCLC = tested on: HOP-92 NSCLC
SF-295 CNS = tested on: SF-295 CNS
A549 NSCLC = tested on: A549 NSCLC
K-562 leukemia = tested on: K-562 leukemia
SR leukemia = tested on: SR leukemia
U251 glioblastoma = tested on: U251 glioblastoma
SN12C renal = tested on: SN12C renal
HCT-15 colon = tested on: HCT-15 colon
MOLT-4 leukemia = tested on: MOLT-4 leukemia
ACHN renal = tested on: ACHN renal
OVCAR-4 ovarian = tested on: OVCAR-4 ovarian
OVCAR-3 ovarian = tested on: OVCAR-3 ovarian
NCI-H226 lung = tested on: NCI-H226 lung
MDA-MB-231 breast = tested on: MDA-MB-231 breast
UO-31 renal = tested on: UO-31 renal
MCF7 breast = tested on: MCF7 breast
NCI-H23 lung = tested on: NCI-H23 lung
CCRF-CEM leukemia = tested on: CCRF-CEM leukemia
MALME-3M melanoma = tested on: MALME-3M melanoma
HT29 colon = tested on: HT29 colon
A498 renal = tested on: A498 renal
RPMI-8226 leukemia = tested on: RPMI-8226 leukemia
SF-268 CNS = tested on: SF-268 CNS
BT-549 breast = tested on: BT-549 breast
HCC-2998 colon = tested on: HCC-2998 colon
HOP-62 NSCLC = tested on: HOP-62 NSCLC
M14 melanoma = tested on: M14 melanoma
KM12 colon = tested on: KM12 colon
IGROV1 ovarian = tested on: IGROV1 ovarian
NCI-H322M lung = tested on: NCI-H322M lung
PC-3 prostate = tested on: PC-3 prostate
COLO 205 colon = tested on: COLO 205 colon
UACC-257 melanoma = tested on: UACC-257 melanoma
NCI-H460 NSCLC = tested on: NCI-H460 NSCLC
DU-145 prostate = tested on: DU-145 prostate
NCI-H522 lung = tested on: NCI-H522 lung
SNB-75 CNS = tested on: SNB-75 CNS
SF-539 CNS = tested on: SF-539 CNS

Question: Which results are given for `CS(=O)c1ccc(-c2nc(-c3ccc(F)cc3)c(-c3ccncc3)[nH]2)cc1` (centres undefined)?
Answer: GI50 (MDA-MB-435 melanoma): 33.2 µM; TGI (MDA-MB-435 melanoma): > 100 µM; GI50 (HL-60(TB) leukemia): 16.4 µM; TGI (HL-60(TB) leukemia): 30.3 µM; GI50 (OVCAR-5 ovarian): 40.4 µM; TGI (OVCAR-5 ovarian): > 100 µM; GI50 (TK-10 renal): 16.8 µM; TGI (TK-10 renal): 37.4 µM; GI50 (HS 578T breast): 20.7 µM; TGI (HS 578T breast): 39 µM; GI50 (OVCAR-8 ovarian): 24 µM; TGI (OVCAR-8 ovarian): 90.4 µM; GI50 (MDA-MB-468 breast): 10.5 µM; TGI (MDA-MB-468 breast): 29.2 µM; GI50 (NCI/ADR-RES ovarian): 98.1 µM; TGI (NCI/ADR-RES ovarian): > 100 µM; GI50 (SK-OV-3 ovarian): 22.7 µM; TGI (SK-OV-3 ovarian): 58.2 µM; GI50 (RXF 393 renal): 17.8 µM; TGI (RXF 393 renal): 33.5 µM; GI50 (SW-620 colon): 31.5 µM; TGI (SW-620 colon): 49.2 µM; GI50 (CAKI-1 renal): 22.2 µM; TGI (CAKI-1 renal): 88.4 µM; GI50 (SK-MEL-5 melanoma): 14.7 µM; TGI (SK-MEL-5 melanoma): 28.4 µM; GI50 (T-47D breast): 27.4 µM; TGI (T-47D breast): 83.9 µM; GI50 (SNB-19 CNS): 56.8 µM; TGI (SNB-19 CNS): > 100 µM; GI50 ([…]-0 renal): 17.8 µM; TGI (786-0 renal): 36.5 µM; GI50 (EKVX NSCLC): 32.6 µM; TGI (EKVX NSCLC): > 100 µM; GI50 (HCT-116 colon): 23.3 µM; TGI (HCT-116 colon): 50.9 µM; GI50 (SK-MEL-28 melanoma): 12.1 µM; TGI (SK-MEL-28 melanoma): 25.6 µM; GI50 (HOP-92 NSCLC): 34.8 µM; TGI (HOP-92 NSCLC): > 100 µM; GI50 (SF-295 CNS): 20.1 µM; TGI (SF-295 CNS): 35.1 µM; GI50 (A549 NSCLC): 38.9 µM; TGI (A549 NSCLC): > 100 µM; GI50 (K-562 leukemia): 27.8 µM; TGI (K-562 leukemia): > 100 µM; GI50 (SR leukemia): 13.1 µM; TGI (SR leukemia): 26.4 µM; GI50 (U251 glioblastoma): 27.8 µM; TGI (U251 glioblastoma): 62.4 µM; GI50 (SN12C renal): 48.5 µM; TGI (SN12C renal): > 100 µM; GI50 (HCT-15 colon): 18.4 µM; TGI (HCT-15 colon): 37.1 µM; GI50 (MOLT-4 leukemia): 25.1 µM; TGI (MOLT-4 leukemia): 62.2 µM; GI50 (ACHN renal): 19 µM; TGI (ACHN renal): 65.1 µM; GI50 (OVCAR-4 ovarian): 38.2 µM; TGI (OVCAR-4 ovarian): 93.8 µM; GI50 (OVCAR-3 ovarian): 29.3 µM; TGI (OVCAR-3 ovarian): 68.8 µM; GI50 (NCI-H226 lung): 19.9 µM; TGI (NCI-H226 lung): 34.4 µM; GI50 (MDA-MB-231 breast): 35.6 µM; TGI (MDA-MB-231 breast): > 100 µM; GI50 (UO-31 renal): 21.4 µM; TGI (UO-31 renal): 69.9 µM; GI50 (MCF7 breast): 26.8 µM; TGI (MCF7 breast): 90.7 µM; GI50 (NCI-H23 lung): 26.7 µM; TGI (NCI-H23 lung): 52.6 µM; GI50 (CCRF-CEM leukemia): 17.7 µM; TGI (CCRF-CEM leukemia): 42.8 µM; GI50 (MALME-3M melanoma): 11.9 µM; TGI (MALME-3M melanoma): 28.1 µM; GI50 (HT29 colon): 11.1 µM; TGI (HT29 colon): 24 µM; GI50 (A498 renal): 16.7 µM; TGI (A498 renal): 55.2 µM; GI50 (RPMI-8226 leukemia): 23.6 µM; TGI (RPMI-8226 leukemia): 40.3 µM; GI50 (SF-268 CNS): 43.4 µM; TGI (SF-268 CNS): > 100 µM; GI50 (BT-549 breast): 41.7 µM; TGI (BT-549 breast): > 100 µM; GI50 (HCC-2998 colon): 23.2 µM; TGI (HCC-2998 colon): 38.7 µM; GI50 (HOP-62 NSCLC): 23 µM; TGI (HOP-62 NSCLC): 50.1 µM; GI50 (M14 melanoma): 6.96 µM; TGI (M14 melanoma): 29.4 µM; GI50 (KM12 colon): 27.4 µM; TGI (KM12 colon): 62.3 µM; GI50 (IGROV1 ovarian): 13.9 µM; TGI (IGROV1 ovarian): 28.9 µM; GI50 (NCI-H322M lung): 37.5 µM; TGI (NCI-H322M lung): 96.2 µM; GI50 (PC-3 prostate): 40.3 µM; TGI (PC-3 prostate): > 100 µM; GI50 (COLO 205 colon): 11.8 µM; TGI (COLO 205 colon): 24.5 µM; GI50 (UACC-257 melanoma): 15.3 µM; TGI (UACC-257 melanoma): 30 µM; GI50 (NCI-H460 NSCLC): 27.8 µM; TGI (NCI-H460 NSCLC): 64.1 µM; GI50 (DU-145 prostate): 30.4 µM; TGI (DU-145 prostate): 93.2 µM; GI50 (NCI-H522 lung): 14.8 µM; TGI (NCI-H522 lung): 35.2 µM; GI50 (SNB-75 CNS): 44.2 µM; TGI (SNB-75 CNS): > 100 µM; GI50 (SF-539 CNS): 29.5 µM; TGI (SF-539 CNS): 71.6 µM
